Laboratory results published in ChEMBL document CHEMBL3991601, “The target landscape of clinical kinase drugs” (Science, 2017).
Active and inactive are the calls of the source. For most assays here, no stated cut-off is given here; in the data, actives have a measured Kd and inactives only a lower limit.

Columns and labels:
Activated CDC42 kinase 1 = Activated CDC42 kinase 1 (Homo sapiens, UniProt Q07912)
[1] = target: Mitogen-activated protein kinase 8 (Homo sapiens, UniProt P45983)
[2] = target: T1, Phenylalanine--tRNA ligase beta subunit (Homo sapiens, UniProt Q9NSD9)
T1 sequence (Q9NSD9 whole entry): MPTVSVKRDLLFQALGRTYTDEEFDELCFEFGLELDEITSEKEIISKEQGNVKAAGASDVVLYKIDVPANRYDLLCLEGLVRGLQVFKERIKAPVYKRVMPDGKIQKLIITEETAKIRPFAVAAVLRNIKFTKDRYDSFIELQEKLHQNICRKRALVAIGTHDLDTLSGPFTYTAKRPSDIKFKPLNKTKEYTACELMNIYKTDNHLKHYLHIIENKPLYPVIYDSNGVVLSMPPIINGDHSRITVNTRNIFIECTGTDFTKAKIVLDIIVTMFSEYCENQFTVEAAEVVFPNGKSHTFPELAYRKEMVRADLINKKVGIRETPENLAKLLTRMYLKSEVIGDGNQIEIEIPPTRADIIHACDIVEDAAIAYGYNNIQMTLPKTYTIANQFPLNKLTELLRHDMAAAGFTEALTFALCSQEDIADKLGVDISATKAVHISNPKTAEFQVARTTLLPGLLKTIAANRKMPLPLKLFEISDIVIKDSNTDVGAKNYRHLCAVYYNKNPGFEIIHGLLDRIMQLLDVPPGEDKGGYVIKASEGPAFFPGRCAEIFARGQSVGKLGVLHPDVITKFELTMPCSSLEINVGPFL

[3] = target: Cyclin-dependent kinase 13 (Homo sapiens, UniProt Q14004)
[4] = target: Mitogen-activated protein kinase 7 (Homo sapiens, UniProt Q13164)
[5] = target: T2, Inhibitor of nuclear factor kappa-B kinase subunit epsilon (Homo sapiens, UniProt Q14164)
T2 sequence (Q14164 whole entry): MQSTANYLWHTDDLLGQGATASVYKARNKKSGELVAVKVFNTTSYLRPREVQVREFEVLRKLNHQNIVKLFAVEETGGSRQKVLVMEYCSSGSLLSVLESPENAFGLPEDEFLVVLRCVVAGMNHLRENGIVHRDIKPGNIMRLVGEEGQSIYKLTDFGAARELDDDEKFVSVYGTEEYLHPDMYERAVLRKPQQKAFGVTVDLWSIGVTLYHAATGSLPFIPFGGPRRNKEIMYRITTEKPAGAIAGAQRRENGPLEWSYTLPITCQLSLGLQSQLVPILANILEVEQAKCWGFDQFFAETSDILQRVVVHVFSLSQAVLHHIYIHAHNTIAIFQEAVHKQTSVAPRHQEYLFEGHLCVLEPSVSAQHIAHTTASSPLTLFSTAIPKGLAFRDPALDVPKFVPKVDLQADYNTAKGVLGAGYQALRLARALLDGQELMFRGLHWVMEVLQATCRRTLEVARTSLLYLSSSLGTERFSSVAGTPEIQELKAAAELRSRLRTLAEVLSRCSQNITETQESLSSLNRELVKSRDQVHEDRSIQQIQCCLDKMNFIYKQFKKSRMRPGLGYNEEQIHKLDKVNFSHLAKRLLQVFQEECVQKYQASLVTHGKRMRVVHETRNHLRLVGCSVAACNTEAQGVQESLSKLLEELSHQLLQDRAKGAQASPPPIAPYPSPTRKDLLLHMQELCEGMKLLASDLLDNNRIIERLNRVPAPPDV

[6] = target: TRAF2 and NCK-interacting protein kinase (Homo sapiens, UniProt Q9UKE5)
[7] = target: Rho-associated protein kinase 1 (Homo sapiens, UniProt Q13464)
[8] = target: Tyrosine-protein kinase ABL1 (Homo sapiens, UniProt P00519)

Cyclin-dependent kinase 13, sequence (Q14004 whole entry): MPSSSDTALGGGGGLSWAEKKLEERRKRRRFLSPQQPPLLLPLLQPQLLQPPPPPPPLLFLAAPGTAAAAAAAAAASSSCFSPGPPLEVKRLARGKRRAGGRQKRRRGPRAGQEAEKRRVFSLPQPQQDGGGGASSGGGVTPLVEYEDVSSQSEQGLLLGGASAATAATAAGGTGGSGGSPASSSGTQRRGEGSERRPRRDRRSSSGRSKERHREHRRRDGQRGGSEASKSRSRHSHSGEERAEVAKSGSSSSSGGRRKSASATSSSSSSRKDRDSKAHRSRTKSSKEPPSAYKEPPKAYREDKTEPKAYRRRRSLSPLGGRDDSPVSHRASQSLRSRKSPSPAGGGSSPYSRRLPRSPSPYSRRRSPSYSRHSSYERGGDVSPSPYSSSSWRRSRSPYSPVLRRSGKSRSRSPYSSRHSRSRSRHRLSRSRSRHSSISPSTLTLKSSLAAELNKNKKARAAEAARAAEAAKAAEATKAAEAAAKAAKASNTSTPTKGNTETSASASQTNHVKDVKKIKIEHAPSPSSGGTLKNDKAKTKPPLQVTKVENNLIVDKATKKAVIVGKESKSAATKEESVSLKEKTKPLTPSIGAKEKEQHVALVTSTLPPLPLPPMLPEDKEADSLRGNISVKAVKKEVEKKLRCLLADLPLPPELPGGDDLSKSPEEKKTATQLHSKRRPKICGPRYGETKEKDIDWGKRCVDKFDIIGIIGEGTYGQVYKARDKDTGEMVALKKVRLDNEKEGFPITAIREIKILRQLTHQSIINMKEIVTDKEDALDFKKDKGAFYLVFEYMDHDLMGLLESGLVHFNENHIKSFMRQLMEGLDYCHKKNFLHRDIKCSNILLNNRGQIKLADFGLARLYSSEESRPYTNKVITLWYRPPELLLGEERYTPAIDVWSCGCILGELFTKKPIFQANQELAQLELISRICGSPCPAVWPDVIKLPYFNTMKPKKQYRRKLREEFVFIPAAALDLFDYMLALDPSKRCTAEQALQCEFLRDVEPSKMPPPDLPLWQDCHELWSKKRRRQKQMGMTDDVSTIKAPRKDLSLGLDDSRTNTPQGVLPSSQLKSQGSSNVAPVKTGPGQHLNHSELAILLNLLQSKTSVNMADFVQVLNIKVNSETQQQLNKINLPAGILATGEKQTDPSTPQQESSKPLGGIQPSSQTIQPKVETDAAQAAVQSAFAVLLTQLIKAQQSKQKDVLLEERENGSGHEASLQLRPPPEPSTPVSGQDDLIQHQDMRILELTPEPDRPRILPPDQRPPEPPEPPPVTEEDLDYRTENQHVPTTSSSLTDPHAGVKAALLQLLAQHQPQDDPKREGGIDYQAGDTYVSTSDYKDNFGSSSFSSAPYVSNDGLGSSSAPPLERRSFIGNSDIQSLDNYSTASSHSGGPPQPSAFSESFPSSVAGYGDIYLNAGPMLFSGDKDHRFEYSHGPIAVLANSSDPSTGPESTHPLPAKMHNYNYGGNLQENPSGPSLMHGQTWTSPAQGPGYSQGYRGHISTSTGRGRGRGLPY
Mitogen-activated protein kinase 8, sequence (P45983 whole entry): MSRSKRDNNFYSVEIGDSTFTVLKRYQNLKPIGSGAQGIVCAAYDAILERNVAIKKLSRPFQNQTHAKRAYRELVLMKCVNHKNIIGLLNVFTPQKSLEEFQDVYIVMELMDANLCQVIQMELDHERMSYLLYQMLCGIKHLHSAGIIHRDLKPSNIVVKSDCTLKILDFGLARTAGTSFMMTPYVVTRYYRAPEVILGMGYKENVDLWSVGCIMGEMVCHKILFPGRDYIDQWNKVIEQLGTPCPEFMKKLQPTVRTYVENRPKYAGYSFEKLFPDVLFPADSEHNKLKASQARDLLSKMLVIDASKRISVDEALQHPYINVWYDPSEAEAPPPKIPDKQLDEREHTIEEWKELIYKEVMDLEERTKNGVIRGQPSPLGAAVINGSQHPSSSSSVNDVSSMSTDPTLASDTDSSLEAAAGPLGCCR
Rho-associated protein kinase 1, sequence (Q13464 whole entry): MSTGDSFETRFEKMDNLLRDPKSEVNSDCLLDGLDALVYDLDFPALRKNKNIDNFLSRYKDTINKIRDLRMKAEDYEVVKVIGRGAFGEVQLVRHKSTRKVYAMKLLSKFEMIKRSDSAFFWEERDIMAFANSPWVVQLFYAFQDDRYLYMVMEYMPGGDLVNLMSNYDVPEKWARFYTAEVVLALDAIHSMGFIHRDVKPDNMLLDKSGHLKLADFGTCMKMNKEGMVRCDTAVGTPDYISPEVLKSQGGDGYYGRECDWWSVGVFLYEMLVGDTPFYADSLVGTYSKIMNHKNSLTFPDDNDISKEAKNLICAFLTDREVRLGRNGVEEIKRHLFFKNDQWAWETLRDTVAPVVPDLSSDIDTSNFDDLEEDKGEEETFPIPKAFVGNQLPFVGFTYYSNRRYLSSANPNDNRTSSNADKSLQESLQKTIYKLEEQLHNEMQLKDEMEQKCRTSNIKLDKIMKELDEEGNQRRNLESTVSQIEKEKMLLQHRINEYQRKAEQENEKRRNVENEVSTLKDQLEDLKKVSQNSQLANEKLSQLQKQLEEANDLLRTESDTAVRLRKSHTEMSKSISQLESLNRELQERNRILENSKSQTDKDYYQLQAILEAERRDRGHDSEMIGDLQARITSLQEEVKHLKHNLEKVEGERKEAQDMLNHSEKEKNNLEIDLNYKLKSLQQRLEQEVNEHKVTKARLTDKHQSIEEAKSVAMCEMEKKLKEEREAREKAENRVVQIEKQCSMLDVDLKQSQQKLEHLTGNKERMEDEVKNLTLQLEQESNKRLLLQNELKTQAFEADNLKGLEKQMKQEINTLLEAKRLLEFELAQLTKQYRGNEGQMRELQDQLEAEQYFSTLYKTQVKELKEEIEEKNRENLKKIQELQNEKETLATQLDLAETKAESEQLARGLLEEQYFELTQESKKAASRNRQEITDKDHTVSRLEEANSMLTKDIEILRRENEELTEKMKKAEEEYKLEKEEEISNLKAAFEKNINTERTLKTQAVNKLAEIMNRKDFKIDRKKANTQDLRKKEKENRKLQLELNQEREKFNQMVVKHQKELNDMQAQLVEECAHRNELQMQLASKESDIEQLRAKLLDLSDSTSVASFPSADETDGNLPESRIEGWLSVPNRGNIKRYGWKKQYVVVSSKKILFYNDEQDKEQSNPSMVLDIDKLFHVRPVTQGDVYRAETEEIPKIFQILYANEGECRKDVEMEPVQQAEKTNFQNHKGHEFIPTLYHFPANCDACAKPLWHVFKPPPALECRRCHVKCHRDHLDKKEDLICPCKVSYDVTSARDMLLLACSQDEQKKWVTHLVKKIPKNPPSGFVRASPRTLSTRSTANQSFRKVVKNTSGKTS
Activated CDC42 kinase 1, sequence (Q07912 whole entry): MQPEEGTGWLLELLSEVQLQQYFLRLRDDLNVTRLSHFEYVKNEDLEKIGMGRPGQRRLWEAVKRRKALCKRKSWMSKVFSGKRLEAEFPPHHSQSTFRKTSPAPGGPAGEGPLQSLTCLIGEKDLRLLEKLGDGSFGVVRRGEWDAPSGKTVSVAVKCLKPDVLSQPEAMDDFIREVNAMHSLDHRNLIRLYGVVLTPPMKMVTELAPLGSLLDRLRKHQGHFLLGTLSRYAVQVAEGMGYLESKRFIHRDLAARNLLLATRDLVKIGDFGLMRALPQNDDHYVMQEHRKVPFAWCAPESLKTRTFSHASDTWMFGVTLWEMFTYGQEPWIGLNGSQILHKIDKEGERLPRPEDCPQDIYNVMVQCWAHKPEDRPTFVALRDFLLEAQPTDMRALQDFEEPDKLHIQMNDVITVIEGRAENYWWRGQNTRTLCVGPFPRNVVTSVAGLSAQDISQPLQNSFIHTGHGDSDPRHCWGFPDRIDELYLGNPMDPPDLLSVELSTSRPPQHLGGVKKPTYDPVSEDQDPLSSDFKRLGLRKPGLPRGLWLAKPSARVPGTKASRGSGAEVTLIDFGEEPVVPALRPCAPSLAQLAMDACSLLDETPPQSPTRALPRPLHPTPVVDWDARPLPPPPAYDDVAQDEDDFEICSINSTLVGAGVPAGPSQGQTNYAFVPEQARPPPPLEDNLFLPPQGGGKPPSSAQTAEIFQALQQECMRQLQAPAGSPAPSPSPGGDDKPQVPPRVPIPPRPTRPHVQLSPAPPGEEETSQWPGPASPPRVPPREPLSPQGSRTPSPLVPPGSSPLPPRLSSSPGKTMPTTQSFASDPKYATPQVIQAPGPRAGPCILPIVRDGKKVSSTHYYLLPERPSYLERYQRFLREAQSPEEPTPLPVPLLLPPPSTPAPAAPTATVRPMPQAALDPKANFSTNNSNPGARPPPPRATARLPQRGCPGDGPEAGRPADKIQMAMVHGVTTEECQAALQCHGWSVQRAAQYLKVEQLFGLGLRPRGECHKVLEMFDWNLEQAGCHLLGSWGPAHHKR

| SMILES | Kd (Activated CDC42 kinase 1) | Kd [1] | Kd [2] | Kd [3] | Kd [4] | Kd [5] | Kd [6] | Kd [7] | Kd [8] |
| --- | --- | --- | --- | --- | --- | --- | --- | --- | --- |
| C[C@@H](Oc1cc(C(=O)Nc2ccc(C(=O)N3CCN(C)CC3)cc2)nnc1N)c1c(Cl)ccc(F)c1Cl | > 30 µM (inactive) | > 30 µM (inactive) | > 30 µM (inactive) | > 30 µM (inactive) | > 30 µM (inactive) | > 30 µM (inactive) | > 30 µM (inactive) | > 30 µM (inactive) | > 30 µM (inactive) |
| CCNC(=O)C#Cc1ccc2c(c1)NC(=O)/C2=C(\Nc1ccc(CN(C)C)cc1)c1ccccc1 | 1.55 µM (active) | > 30 µM (inactive) | > 30 µM (inactive) | > 30 µM (inactive) | > 30 µM (inactive) | 0.408 µM (active) | > 30 µM (inactive) | > 30 µM (inactive) | 1.59 µM (active) |
| COCc1c(-c2ccc(NC(=O)Nc3cc(C(F)(F)F)ccc3F)c(F)c2)c2c(N)ncnn2c1CN1CCOCC1 | > 30 µM (inactive) | > 30 µM (inactive) | > 30 µM (inactive) | > 30 µM (inactive) | > 30 µM (inactive) | > 30 µM (inactive) | > 30 µM (inactive) | > 30 µM (inactive) | > 30 µM (inactive) |
| COc1cc([C@@H]2c3cc4c(cc3[C@H](O)[C@H]3COC(=O)[C@@H]23)OCO4)cc(OC)c1OC [AXL-1717] | > 30 µM (inactive) | > 30 µM (inactive) | > 30 µM (inactive) | – | > 30 µM (inactive) | > 30 µM (inactive) | > 30 µM (inactive) | > 30 µM (inactive) | > 30 µM (inactive) |
| NC(=O)Nc1cc(-c2cccc(F)c2)sc1C(=O)N[C@H]1CCCNC1 [AZD-7762] | 1.09 µM (active) | > 30 µM (inactive) | > 30 µM (inactive) | > 30 µM (inactive) | > 30 µM (inactive) | > 30 µM (inactive) | 0.094 µM (active) | – | 0.61 µM (active) |
| Cc1cc(Nc2ncc(Cl)c(Nc3ccccc3S(=O)(=O)C(C)C)n2)c(OC(C)C)cc1C1CCNCC1 [CERITINIB] | 0.929 µM (active) | > 30 µM (inactive) | > 30 µM (inactive) | > 30 µM (inactive) | 9.85 µM (active) | > 30 µM (inactive) | > 30 µM (inactive) | > 30 µM (inactive) | > 30 µM (inactive) |
| Cn1cc(C2=C(c3cn(C4CCN(Cc5ccccn5)CC4)c4ccccc34)C(=O)NC2=O)c2ccccc21 [ENZASTAURIN] | – | – | > 30 µM (inactive) | – | – | – | – | – | – |
| Cc1cccc(-c2nn3c(c2-c2ccnc4ccc(C(N)=O)cc24)CCC3)n1 [GALUNISERTIB] | > 30 µM (inactive) | > 30 µM (inactive) | > 30 µM (inactive) | > 30 µM (inactive) | > 30 µM (inactive) | > 30 µM (inactive) | 1.21 µM | > 30 µM (inactive) | > 30 µM (inactive) |
| CNC(=O)c1nn(C)c2c1C(C)(C)Cc1cnc(Nc3ccc(N4CCN(C)CC4)cc3)nc1-2 [MILCICLIB] | 0.9 µM (active) | > 30 µM (inactive) | > 30 µM (inactive) | > 30 µM (inactive) | > 30 µM (inactive) | 2.97 µM (active) | – | > 30 µM (inactive) | – |
| FC(F)(F)c1ccc(/C=C/c2nc(COc3ccc(CCCCn4ccnn4)cc3)co2)cc1 [MUBRITINIB] | > 30 µM (inactive) | > 30 µM (inactive) | > 30 µM (inactive) | > 30 µM (inactive) | > 30 µM (inactive) | > 30 µM (inactive) | > 30 µM (inactive) | > 30 µM (inactive) | > 30 µM (inactive) |
| CCOc1cc2ncc(C#N)c(Nc3ccc(F)c(Cl)c3)c2cc1NC(=O)/C=C/CN(C)C [PELITINIB] | > 30 µM (inactive) | > 30 µM (inactive) | > 30 µM (inactive) | > 30 µM (inactive) | > 30 µM (inactive) | > 30 µM (inactive) | – | > 30 µM (inactive) | – |
| CO[C@H]1C[C@@H]2CC[C@@H](C)[C@@](O)(O2)C(=O)C(=O)N2CCCC[C@H]2C(=O)O[C@H]([C@H](C)C[C@@H]2CC[C@@H](OP(C)(C)=O)[C@H](OC)C2)CC(=O)[C@H](C)/C=C(\C)[C@@H](O)[C@@H](OC)C(=O)[C@H](C)C[C@H](C)/C=C/C=C/C=C/1C [RIDAFOROLIMUS] | > 30 µM (inactive) | > 30 µM (inactive) | > 30 µM (inactive) | > 30 µM (inactive) | > 30 µM (inactive) | > 30 µM (inactive) | > 30 µM (inactive) | > 30 µM (inactive) | > 30 µM (inactive) |
| CN1CCN(CCOc2cc(OC3CCOCC3)c3c(Nc4c(Cl)ccc5c4OCO5)ncnc3c2)CC1 [SARACATINIB] | 4.65 µM (active) | > 30 µM (inactive) | > 30 µM (inactive) | > 30 µM (inactive) | > 30 µM (inactive) | > 30 µM (inactive) | 1.38 µM (active) | > 30 µM (inactive) | – |
| COc1cc2c(Nc3ccc(Cl)c(Cl)c3F)ncnc2cc1OC[C@@H]1C[C@@H]2CN(C)C[C@@H]2C1 [TESEVATINIB] | > 30 µM (inactive) | > 30 µM (inactive) | > 30 µM (inactive) | > 30 µM (inactive) | > 30 µM (inactive) | > 30 µM (inactive) | > 30 µM (inactive) | > 30 µM (inactive) | 0.921 µM (active) |
| Cn1ncc(Cl)c1-c1cc(C(=O)N[C@H](CN)Cc2ccc(F)c(F)c2)oc1Cl [UPROSERTIB] | > 30 µM (inactive) | > 30 µM (inactive) | > 30 µM (inactive) | > 30 µM (inactive) | – | > 30 µM (inactive) | > 30 µM (inactive) | – | > 30 µM (inactive) |

More lines, now with the values ahead:

| Kd (Activated CDC42 kinase 1) | Kd [1] | Kd [2] | Kd [3] | Kd [4] | Kd [5] | Kd [6] | Kd [7] | Kd [8] | SMILES |
| --- | --- | --- | --- | --- | --- | --- | --- | --- | --- |
| > 30 µM (inactive) | > 30 µM (inactive) | > 30 µM (inactive) | > 30 µM (inactive) | > 30 µM (inactive) | > 30 µM (inactive) | > 30 µM (inactive) | > 30 µM (inactive) | > 30 µM (inactive) | Nc1ncnc2c1c(-c1cccc(OCc3ccccc3)c1)cn2[C@H]1C[C@@H](CN2CCC2)C1 [AEW-541] |
| > 30 µM (inactive) | > 30 µM (inactive) | > 30 µM (inactive) | > 30 µM (inactive) | > 30 µM (inactive) | > 30 µM (inactive) | > 30 µM (inactive) | > 30 µM (inactive) | – | C#Cc1cccc(Nc2ncnc3cc(OC)c(OCCCCCCC(=O)NO)cc23)c1 [CUDC-101] |
| > 30 µM (inactive) | – | > 30 µM (inactive) | – | > 30 µM (inactive) | – | > 30 µM (inactive) | > 30 µM (inactive) | – | CCn1cc(-c2ccnc3[nH]c(-c4cccc(CN(C)C)c4)cc23)c(-c2ccc(NC(=O)N(C)C)cc2)n1 [GSK-1070916] |
| > 30 µM (inactive) | > 30 µM (inactive) | > 30 µM (inactive) | > 30 µM (inactive) | > 30 µM (inactive) | > 30 µM (inactive) | > 30 µM (inactive) | > 30 µM (inactive) | > 30 µM (inactive) | NC1(c2ccc(-c3nc4ccn5c(=O)[nH]nc5c4cc3-c3ccccc3)cc2)CCC1 [MK-2206] |
| > 30 µM (inactive) | > 30 µM (inactive) | > 30 µM (inactive) | > 30 µM (inactive) | > 30 µM (inactive) | > 30 µM (inactive) | > 30 µM (inactive) | > 30 µM (inactive) | > 30 µM (inactive) | CN(C[C@@H]1COCCO1)S(=O)(=O)Nc1ccc2ccc3ncc(-c4cnn(C)c4)cc3c(=O)c2c1 [MK-2461] |
| – | – | > 30 µM (inactive) | > 30 µM (inactive) | 2.96 µM | – | 0.746 µM (active) | – | – | CC(=O)NCC(=O)N1[C@@H]2CC[C@H]1c1ccc(Nc3ncc(C(F)(F)F)c(NC4CCC4)n3)cc12 [PF-03814735] |
